Several values for one entry are separate records, joined by “and”; a condition that tells them apart may be missing. Identical values can stand only once.
Assays:
Rat [1] = experiment: Tail-Flick test after intrathecal (IT) injection, AI 40%, cut-off 10 sec; assay type: in vivo; conditions: IT nornicotine perchlorate 10 ug/10 ul alone, Day 1, one rat per line, cutoff 10 sec; for Tail-Flick 5 min.: 5 min after injection; for Tail-Flick 10 min.: 10 min after injection; for Tail-Flick 15 min.: 15 min after injection; for Tail-Flick 30 min.: 30 min after injection; for Tail-Flick 45 min.: 45 min after injection; for Tail-Flick 60 min.: 60 min after injection
Description: (§1) • Experiment: Tail-Flick—Al at 40%; cut-off 10 sec. • Measurements will be taken at baseline (2×), 5, 10, 15, 30, 45, 60, 90, 120 minutes after drug administration. • Drug Treatment: • […] will be administered in a 10 ul vol., followed by a 10 ul saline flush. • Both R- & S-nornicotine will be tested. • Preparation of Solution: • 10 ug in 10 ul vol. • 100 ug in 100 ul vol. • […]. • 1 mg in 1 ml=10 mg/10 ml vol. • Drug Administration Schedule:
IT—Narnicotine Perchlorate—Day 1 Tail-Flick—IITC Life Science Model 33 Series 8 • Al=40% Cutoff=10 sec. […]

Rat [2] = assay type: in vivo; conditions: IT nornicotine perchlorate 10 ug/10 ul, Day 1
Description: as §1, with “Schedule: […]” for “Schedule:”

[3] = following peripheral administration of nicotine; cited from earlier work
[4] = following repeated nicotine dosing; cited from earlier work

| SMILES | Tail-Flick 5 min. (Rat [1]) | Tail-Flick 10 min. (Rat [1]) | Tail-Flick 15 min. (Rat [1]) | Tail-Flick 30 min. (Rat [1]) | Tail-Flick 45 min. (Rat [1]) | Tail-Flick 60 min. (Rat [1]) | Behavior: side effects (Rat [2]) | residence in the rat's brain [3] | residence in the rat's brain, times longer than nicotine [3] | accumulation in the brain compared to nicotine [4] |
| --- | --- | --- | --- | --- | --- | --- | --- | --- | --- | --- |
| c1cncc([C@@H]2CCCN2)c1 [S, S-nornicotine] | 9.06 s and 8.01 s and 4.40 s and 8.17 s and 3.84 s | 6.39 s and 5.47 s and 5.60 s and 6.21 s and 3.21 s | 4.58 s and 4.33 s and 6.08 s and 3.29 s and 3.56 s | 6.14 s and 3.31 s and 4.85 s and 3.47 s and 4.05 s | 3.95 s and 3.57 s and 2.23 s and 4.60 s and 4.07 s | 4.11 sec and 3.35 sec (2×) and 4.27 sec and 4.26 sec | no obvious side effects |  |  |  |
| c1cncc([C@H]2CCCN2)c1 [R, R-nornicotine] | 3.04 s and 5.00 s and 5.47 s and 2.16 s and 6.67 s | 2.23 s and 4.08 s and 2.53 s and 1.80 s and 5.95 s | 3.16 sec and 4.34 sec and 2.82 sec (2×) and 2.86 sec | 2.55 s and 3.13 s and 3.90 s and 2.73 s and 4.14 s | 3.13 s and 2.87 s and 4.26 s and 2.40 s and 4.95 s | 2.19 s and 2.75 s and 3.12 s and 2.63 s and 3.93 s | no noticeable side effects |  |  |  |
| CN1CCCC1c1cccnc1 (stereo not drawn) [nicotine] |  |  |  |  |  |  |  | 52 min |  |  |
| c1cncc([C@@H]2CCCN2)c1 [nornicotine] |  |  |  |  |  |  |  | 166 min | about 3 times | about 4 fold |

— patent publication US8710069B2, “Opioid-nornicotine codrugs combinations for pain management” (University of Kentucky Research Foundation, priority 2008, dated 2014)
